Read-outs that look alike come from different tables or passages of the source.
Legend:
CPS1 [1] = test: RNA-seq of compound-treated primary human hepatocytes, CPS1 expression; assay type: cell-based
ASS1 = test: RNA-seq of compound-treated primary human hepatocytes, ASS1 expression; assay type: cell-based
ASL = test: RNA-seq of compound-treated primary human hepatocytes, ASL expression; assay type: cell-based
ARG1 = test: RNA-seq of compound-treated primary human hepatocytes, ARG1 expression; assay type: cell-based
SLC25A15 = test: RNA-seq of compound-treated primary human hepatocytes, SLC25A15 expression; assay type: cell-based
urea cycle genes = test: RNA-seq of primary human hepatocytes, compounds that modulate multiple urea cycle-related genes; assay type: cell-based
OTC [2] = test: RNA-seq of compound-treated primary human hepatocytes, OTC expression; assay type: cell-based; details: primary human hepatocytes, RNA-seq
NAGS = assay type: cell-based, human; details: primary human hepatocytes, RNA-seq (Table 6)
OTC [3] = test: OTC expression modulated by compounds, OTC/GeoMean of housekeeping genes, DMSO = 1 (Table 3A); assay type: cell-based, human; details: 10 uM final concentration
OTC [4] = test: JAK inhibitors at 0.3 and 3 μM in primary human hepatocytes, OTC mRNA fold change; assay type: cell-based; details: fold change vs DMSO
Method: (§1) Additional small molecules that inhibit JAK1, JAK2, JAK3, or a combination of the JAK proteins were tested in primary human hepatocytes as described in Example 2. JAK inhibitors were tested in triplicate at 0.3 μM and 3 μM. The results are shown as the fold change (mRNA FC) in the mRNA levels of OTC and CPS1 genes after treatment compared to an untreated control (DMSO) and the standard deviation (SD).

CPS1 [5] = test: JAK inhibitors at 0.3 and 3 μM in primary human hepatocytes, CPS1 mRNA fold change; assay type: cell-based; details: fold change vs DMSO
Method: as §1

Structure (SMILES) | CPS1 expression, Fold change (Log 2) vs untreated (CPS1 [1]) [Log 2] | Fold change (Log 2) vs untreated, ASS1 expression (ASS1) [Log 2] | ASL expression, Fold change (Log 2) vs untreated (ASL) [Log 2] | Fold change (Log 2) vs untreated, ARG1 expression (ARG1) [Log 2] | Fold change (Log 2) vs untreated, SLC25A15 expression (SLC25A15) [Log 2] | Up-regulated Genes (urea cycle genes) | number of urea cycle genes whose expression was significantly up-regulated (urea cycle genes) | OTC expression, Fold change (Log 2) vs untreated (OTC [2]) [Log 2] | Fold change (Log 2) vs untreated, ASS1 expression (ASS1; primary human hepatocytes, RNA-seq (Table 4)) [Log 2] | Fold change (Log 2) vs untreated, NAGS expression (NAGS) [Log 2] | number of urea cycle genes whose expression was significantly up-regulated (urea cycle genes; primary human hepatocytes, RNA-seq) | Up-regulated Genes (urea cycle genes; primary human hepatocytes, RNA-seq, urea cycle-related genes significantly increased (Table 10)) | Max Value (OTC/GeoMean of HKs; DMSO = 1) (OTC [3]) | OTC mRNA FC (OTC [4]; 0.3 uM) | OTC mRNA FC (OTC [4]; 3 uM) | CPS1 mRNA FC (CPS1 [5]; 0.3 uM) | CPS1 mRNA FC (CPS1 [5]; 3 uM)
CNC[C@H](O)c1ccc(O)c(O)c1 [Epinephrine] | 4.85 | 1.08 | 0.6 | 2.28 | 1.14 | CPS1, ASS1, ASL, ARG1, SLC25A15 | five | – | – | – | – | – | – | – | – | – | –
COc1cccc2c1C(=O)c1c(O)c3c(c(O)c1C2=O)C[C@@](O)(/C(CO)=N/NC(=O)CCCCCN1C(=O)C=CC1=O)C[C@@H]3O[C@H]1C[C@H](N)[C@H](O)[C@H](C)O1 [INNO-206 (aldoxorubicin), aldoxorubicin] | – | – | – | – | – | – | – | 0.87 | 0.58 | 1.63 | three | NAGS, ASS1, OTC | 2.36 | – | – | – | –
Cc1cc(Nc2nc(N[C@@H](C)c3ncc(F)cn3)ncc2Cl)[nH]n1 [AZD1480] | – | – | – | – | – | – | – | – | – | – | – | – | 1.46 | 1.63 | 2.3 | 1.1 | 1.77
